What was measured:
Format in all cases: cell-based
[1] = test system: Escherichia coli (ATCC 35218); experiment: Detection of the inhibition zone around a support impregnated with antibiotic, by ombroscopy / micro-ombroscopy
From the text: (§1) In general terms, referring to FIG. 2, the method of detection 100 of the present invention comprises a first step 101 of seeding the culture medium 2 with an extract of biological particles 1. The extract of biological particles 1 is for example a raw sample of biological particles 1 taken from the patient directly. In this case the raw sample undergoes a preculture phase for isolating strains of biological particles 1 present, in the case of a sample comprising a diversity of biological particles 1, and increase of the biological particles 1 selected and isolated. […] The sample of biological particles 1 has a biomass of biological particles 1 that is sufficient to be analyzed validly, such as a standard at a concentration of 0.5 McFarland. The extract of biological particles 1 is for example from urine, blood, cerebrospinal fluid or a similar biological fluid.
(§2) The culture medium 2 is for example flooded with the extract of biological particles 1, or the culture medium 2 is seeded with biological particles 1 by swabbing, or the culture medium 2 receives the biological particles by spreading them using a rake. Then, the Petri dish 4 is agitated transversely to distribute the extract of biological particles 1 as uniformly as possible on the culture medium 2, and then any supernatant is removed from the Petri dish 4. The first step of seeding 101 may have features different from those described above without departing from the rules of the present invention.
The method of detection 100 then comprises a second step 102 of receiving at least one dose of the chemical agent 3 at the initial time point T0, for example starting from placement of at least one impregnated support 5 inoculated with the chemical agent 3 on a receiving zone R of the impregnated support 5 on the culture medium 2.
The impregnated support 5 is for example a disk impregnated with the chemical agent 3, the disk having the overall conformation of a thin slice of a cylinder. The disk comprises an amount of chemical agent 3 that is homogeneous overall in its volume. […]

[2] = test system: Escherichia coli (ATCC 25922); experiment: Detection of the inhibition zone around a support impregnated with antibiotic, by micro-ombroscopy; conditions: micro-ombroscopy (FIG. 10 device), detection time TX of two hours
From the text: as §1
as §2, with “The first step of seeding 101 may have features different from those described above without departing from the rules of the present invention.” left out

[3] = test system: Escherichia coli (ATCC 25922); experiment: Minimum inhibitory concentration calculated from the normed representation (ombroscopy image plus ruler); conditions: starting from six hours, FIGS. 26 and 27
From the text: (§3) The impregnated support 5 is for example also a slender strip, of overall rectangular conformation. The strip comprises for example a concentration of chemical agent 3 that follows an increasing concentration gradient from one short edge to an opposite short edge of the strip. In FIG. 19, the fifth processing step 105 comprises a second phase X2 of taking a control photograph 7' of a ruler 15 arranged on the culture medium 2 contained in the Petri dish 4, the second phase X2 also being carried out by the detecting device 12. Then the fifth processing step 105 comprises a third phase X3 of superimposing the image 7 and the control photograph 7' and more particularly of their respective receiving zone R to form a normed representation 7'' of the culture medium 2. In FIG. 20, the fifth processing step 105 comprises a fourth phase X4 of localization of a reference mark 16 of the ruler 15. In the example shown, the reference mark 16 is the indication “256” on the ruler 15, and the reference mark 16 may consist of some other and relatively any indication. The reference mark 16 comprises Cartesian coordinates […] and […]. In FIGS. 21 to 25, the fifth processing step 105 comprises a fifth phase X5 of processing the normed representation 7''. In FIG. 21, the fifth phase X5 comprises at least one smoothing operation for homogenizing the normed representation 7''. […]

[4] = test system: Staphylococcus aureus (ATCC 25923); experiment: as above; conditions: starting from six hours, FIG. 28
From the text: as §3

[5] = test system: Escherichia coli (ATCC 35218); experiment: Minimum inhibitory concentration / inhibition zone from the normed representation (ombroscopy image plus ruler)
From the text: as §3

response characterized from the calculated minimum concentration MIC [3]: sensitive
response characterized from the calculated minimum concentration MIC [4]: sensitive
SMILES: CC1(C)S[C@@H]2[C@H](NC(=O)[C@H](N)c3ccccc3)C(=O)N2[C@H]1C(=O)O [ampicillin]
response of the biological particles to the chemical agent (sensitivity / resistance) ([1]; micro-ombroscopy (FIG. 10 device), detection time TX of four hours): resistance
response of the biological particles to the chemical agent (sensitivity / resistance) ([1]; ombroscopy (FIG. 9 device), identifiable starting from four hours, images up to twenty-four hours): resistance
presence or absence of inhibition zone ([1]; ombroscopy (FIG. 9 device), starting from four hours): no inhibition zone is detected
response of the biological particles to the chemical agent (sensitivity / resistance) [2]: sensitivity
response from the normed representation ([5]; FIG. 29, based on absence of a first inhibition zone Z1): resistant
response from the normed representations, according to EUCAST ([5]; FIG. 30): resistant

Source: US10865376B2, “Method for detecting the presence or absence of biological particles” (bioMérieux, priority 2014, dated 2020)
